Experimental data: patent US20230111310A1, “CARBOXYLIC ACID DERIVATIVE-SUBSTITUTED IMINO ARYL COMPOUND, PREPARATION METHOD THEREFOR, HERBICIDAL COMPOSITION AND USE THEREOF” (Qingdao Kingagroot Chemical Compound Co., Ltd., priority 2020, published 2023)

Columns and labels:
Test in all cases: Weeding effect in post-emergence stage
Type in all cases: in vivo
Conditions in all cases: level of fresh weight growth control rate
Abutilon theophrasti = tested on: Abutilon theophrasti
Procedure, shortened: (§1)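 Doses of 500, 250, 125, 60, 30, 15 and 7.5 g/ha, with methyl oleate synergist (1.5 liter/ha) and Tween 80 from acetone solution, applied by spray tower post-emergence (2–3 leaf stage). Weed control scored after 3 further greenhouse weeks, averaged over triplicates.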

Alopecurus japonicus = tested on: Alopecurus japonicus
Procedure, shortened: as §1

Digitaria sanguinalis = tested on: Digitaria sanguinalis
Procedure, shortened: as §1

Eleusine indica = tested on: Eleusine indica
Procedure, shortened: as §1

Setaria viridis = tested on: Setaria viridis
Procedure, shortened: as §1

Echinochloa crusgalli = tested on: Echinochloa crusgalli
Procedure, shortened: as §1

Compound | Weeding effect in post-emergence stage, Abutilon theophrasti (Abutilon theophrasti; Dose 15 g/ha) | Weeding effect in post-emergence stage, Alopecurus japonicus (Alopecurus japonicus; Dose 15 g/ha) | Weeding effect in post-emergence stage, Digitaria sanguinalis (Digitaria sanguinalis; Dose 15 g/ha) | Weeding effect in post-emergence stage, Eleusine indica (Eleusine indica; Dose 15 g/ha) | Weeding effect in post-emergence stage, Setaria viridis (Setaria viridis; Dose 15 g/ha) | Weeding effect in post-emergence stage, Echinochloa crusgalli (Echinochloa crusgalli; Dose 15 g/ha) | Weeding effect in post-emergence stage, Abutilon theophrasti (Abutilon theophrasti; Dose 30 g/ha) | Weeding effect in post-emergence stage, Alopecurus japonicus (Alopecurus japonicus; Dose 30 g/ha) | Weeding effect in post-emergence stage, Digitaria sanguinalis (Digitaria sanguinalis; Dose 30 g/ha) | Weeding effect in post-emergence stage, Eleusine indica (Eleusine indica; Dose 30 g/ha) | Weeding effect in post-emergence stage, Setaria viridis (Setaria viridis; Dose 30 g/ha) | Weeding effect in post-emergence stage, Echinochloa crusgalli (Echinochloa crusgalli; Dose 30 g/ha) | other results
C/C(=N\OC(=O)[C@@H](C)O/N=C/c1cc(-n2c(=O)cc(C(F)(F)F)n(C)c2=O)c(F)cc1Cl)C(C)C [250(R)] | 5 (Level 5: growth control rate is above 85%) | 5 (Level 5: growth control rate is above 85%) | 5 (Level 5: growth control rate is above 85%) | 5 (Level 5: growth control rate is above 85%) | 5 (Level 5: growth control rate is above 85%) | 5 (Level 5: growth control rate is above 85%) |  |  |  |  |  |  | 
CCC(CC)=NOC(=O)[C@@H](C)O/N=C/c1cc(-n2c(=O)cc(C(F)(F)F)n(C)c2=O)c(F)cc1Cl [251(R)] | 5 (Level 5: growth control rate is above 85%) | 5 (Level 5: growth control rate is above 85%) | 5 (Level 5: growth control rate is above 85%) | 5 (Level 5: growth control rate is above 85%) | 5 (Level 5: growth control rate is above 85%) | 5 (Level 5: growth control rate is above 85%) |  |  |  |  |  |  | 
CCO/C(C)=N/OC(=O)[C@@H](C)O/N=C/c1cc(-n2c(=O)cc(C(F)(F)F)n(C)c2=O)c(F)cc1Cl [252(R)] | 5 (Level 5: growth control rate is above 85%) | 5 (Level 5: growth control rate is above 85%) | 5 (Level 5: growth control rate is above 85%) | 5 (Level 5: growth control rate is above 85%) | 5 (Level 5: growth control rate is above 85%) | 5 (Level 5: growth control rate is above 85%) |  |  |  |  |  |  | 
CCOC(=O)C(C)=NOC(=O)C(C)ON=Cc1cc(-n2c(=O)cc(C(F)(F)F)n(C)c2=O)c(F)cc1Cl [254(R)] | 5 (Level 5: growth control rate is above 85%) | 5 (Level 5: growth control rate is above 85%) | 5 (Level 5: growth control rate is above 85%) | 5 (Level 5: growth control rate is above 85%) | 5 (Level 5: growth control rate is above 85%) | 5 (Level 5: growth control rate is above 85%) |  |  |  |  |  |  | 
C[C@@H](O/N=C/c1cc(-n2c(=O)cc(C(F)(F)F)n(C)c2=O)c(F)cc1Cl)C(=O)O/N=C/c1ccccc1 [255(R)] |  |  |  |  |  |  | 5 (Level 5: growth control rate is above 85%) | 5 (Level 5: growth control rate is above 85%) | 5 (Level 5: growth control rate is above 85%) | 5 (Level 5: growth control rate is above 85%) | 5 (Level 5: growth control rate is above 85%) | 5 (Level 5: growth control rate is above 85%) | 
CC(C)=NOCCOC(=O)[C@@H](C)O/N=C/c1cc(-n2c(=O)cc(C(F)(F)F)n(C)c2=O)c(F)cc1Cl [259(R)] |  |  |  |  |  |  | 5 (Level 5: growth control rate is above 85%) | 5 (Level 5: growth control rate is above 85%) | 5 (Level 5: growth control rate is above 85%) | 5 (Level 5: growth control rate is above 85%) | 5 (Level 5: growth control rate is above 85%) | 5 (Level 5: growth control rate is above 85%) | 
C[C@@H](O/N=C/c1cc(-n2c(=O)cc(C(F)(F)F)n(C)c2=O)c(F)cc1Cl)C(=O)Oc1ccccc1 [262(R)] | 5 (Level 5: growth control rate is above 85%) | 5 (Level 5: growth control rate is above 85%) | 5 (Level 5: growth control rate is above 85%) | 5 (Level 5: growth control rate is above 85%) | 5 (Level 5: growth control rate is above 85%) | 5 (Level 5: growth control rate is above 85%) |  |  |  |  |  |  | 
C[C@@H](O/N=C/c1cc(-n2c(=O)cc(C(F)(F)F)n(C)c2=O)c(F)cc1Cl)C(=O)ON1C(=O)CCC1=O [263(R)] |  |  |  |  |  |  |  |  |  |  |  |  | Weeding effect in post-emergence stage, Abutilon theophrasti (Abutilon theophrasti; Dose 60 g/ha): 5 (Level 5: growth control rate is above 85%); Weeding effect in post-emergence stage, Alopecurus japonicus (Alopecurus japonicus; Dose 60 g/ha): 5 (Level 5: growth control rate is above 85%); Weeding effect in post-emergence stage, Digitaria sanguinalis (Digitaria sanguinalis; Dose 60 g/ha): 5 (Level 5: growth control rate is above 85%); Weeding effect in post-emergence stage, Eleusine indica (Eleusine indica; Dose 60 g/ha): 5 (Level 5: growth control rate is above 85%); Weeding effect in post-emergence stage, Setaria viridis (Setaria viridis; Dose 60 g/ha): 5 (Level 5: growth control rate is above 85%); Weeding effect in post-emergence stage, Echinochloa crusgalli (Echinochloa crusgalli; Dose 60 g/ha): 5 (Level 5: growth control rate is above 85%)
C[C@@H](O/N=C/c1cc(-n2c(=O)cc(C(F)(F)F)n(C)c2=O)c(F)cc1Cl)C(=O)OCC1OCCO1 [266(R)] |  |  |  |  |  |  | 5 (Level 5: growth control rate is above 85%) | 5 (Level 5: growth control rate is above 85%) | 5 (Level 5: growth control rate is above 85%) | 5 (Level 5: growth control rate is above 85%) | 5 (Level 5: growth control rate is above 85%) | 5 (Level 5: growth control rate is above 85%) | 
C[C@@H](O/N=C/c1cc(-n2c(=O)cc(C(F)(F)F)n(C)c2=O)c(F)cc1Cl)C(=O)OCc1cccs1 [268(R)] |  |  |  |  |  |  | 5 (Level 5: growth control rate is above 85%) | 5 (Level 5: growth control rate is above 85%) | 5 (Level 5: growth control rate is above 85%) | 5 (Level 5: growth control rate is above 85%) | 5 (Level 5: growth control rate is above 85%) | 5 (Level 5: growth control rate is above 85%) | 
C[C@@H](O/N=C/c1cc(-n2c(=O)cc(C(F)(F)F)n(C)c2=O)c(F)cc1Cl)C(=O)OCc1ccccc1F [284(R)] | 5 (Level 5: growth control rate is above 85%) | 5 (Level 5: growth control rate is above 85%) | 5 (Level 5: growth control rate is above 85%) | 5 (Level 5: growth control rate is above 85%) | 5 (Level 5: growth control rate is above 85%) | 5 (Level 5: growth control rate is above 85%) |  |  |  |  |  |  | 
